Values quoted from earlier work as cited in patent publication US20040028613A1, “Dopamine agonist formulations for enhanced central nervous system delivery” (Nastech Pharmaceutical Company Inc, priority 2001, published 2004).

Columns and labels:
[1] = aqueous solution, physiologic pH
[2] = tested on: ciliary function in epithelial cell cultures
[3] = subcutaneous injection
[4] = 2.5 mg to 3.5 mg, hypotension, nausea, vomiting, impaired vision, diaphoresis, ashen coloring
[5] = tested on: ciliary movement of human adenoid tissue; settings: for time in which ciliary movement was inhibited / inhibitory effect on ciliary movement at the end of 60 mm: 0.3%
[6] = tested on: aminopeptidases
[7] = intraduodenal, rats, with 1% (w/v) saline dispersion of polycarbophil

CCN(CC)/[N+]([O-])=N/O.CCNCC [diethylamine/NO]
rate (time) of NO release [1]: < 3 min

2-alkyl-4-hydroxyquinolines [pyo compound]
concentration producing ciliostasis / inhibiting ciliary motility [2]: 50 µg/mL

CN1CCc2cccc3c2[C@H]1Cc1ccc(O)c(O)c1-3 [apomorphine]
CSF levels of active drug as percentage of levels found in the plasma [3]: less than 5%
side effects of intranasal delivery [4]: extensive and serious side effects

Laureth-9
time in which ciliary movement was inhibited [5]: 10 mm

CC(=O)OC1CC2(C)C(CC(O)C3C4(C)CCC(O)C(C)C4CCC32C)C1=C(CCCC(C)C)C(=O)NCCS(=O)(=O)O (stereo not drawn) [STDHF, sodium taurodihydrofusidate]
inhibition of ciliary movement ([5]; concentration of 0.3%, at 60 minutes): total

CC(C)CC(N)B(O)O (stereo not drawn) [boro-leucine]
effectiveness in enzyme inhibition relative to bestatin [6]: more than 100 times
effectiveness in enzyme inhibition relative to puromycin [6]: more than 1000 times

NCCN(CCN)/[N+]([O-])=N/O [diethylenetriamine/NO (DETANO)]
rate (time) of NO release [1]: approximately 20 hours

C[C@H](CCC(=O)O)[C@H]1CC[C@H]2[C@@H]3CC[C@@H]4C[C@H](O)CC[C@]4(C)[C@H]3C[C@H](O)[C@]12C [deoxycholate, deoxycholic acid]
time in which ciliary movement was inhibited [5]: 20 mm

C[C@H](CCC(=O)NCC(=O)O)[C@H]1CC[C@H]2[C@@H]3[C@H](O)C[C@@H]4C[C@H](O)CC[C@]4(C)[C@H]3C[C@H](O)[C@]12C [glycocholate, glycocholic acid]
inhibitory effect on ciliary movement at the end of 60 mm [5]: no inhibitory effect

C[C@H](CCC(=O)NCCS(=O)(=O)O)[C@H]1CC[C@H]2[C@@H]3[C@H](O)C[C@@H]4C[C@H](O)CC[C@]4(C)[C@H]3C[C@H](O)[C@]12C [taurocholate, taurocholic acid]
inhibitory effect on ciliary movement at the end of 60 mm [5]: no inhibitory effect

9-desglycinamide, 8-arginine vasopressin
increase of bioavailability compared to aqueous solution without polymer [7]: 3-5 fold

CN1CCc2cccc3c2[C@H]1Cc1ccc(O)c(O)c1-3 [SC Inj (ref. 1), apomorphine]
CSF level at 20 min ([3]; prior art, patients): 1.08 ng/mL
Plasma level at 20 min ([3]; prior art, patients): 25.04 ng/mL
